Test results taken from US20250319139A1, “METHODS FOR TREATING NEUROINFLAMMATION” (University of Virginia Patent Foundation, priority 2021, published 2025).
Entries after “also recorded” stand apart in the source; their conditions may differ.

Experiments:
Format in all cases: in vivo, mouse
C57BL/6J mice [1] = assay: Barnes maze test, young adult mice
C57BL/6J mice [2] = assay: Novel object recognition test, young adult mice
C57BL/6J mice [3] = assay: Barnes maze test, old mice; details: old mice with exercise and surgery; intraperitoneal valeric acid once a week vs normal saline
Text: After one-week acclimation, old mice (18-month old male C57BL/6J mice) weighing 30-36 g were used in three studies. In the first experiment, old mice were randomly assigned to: 1) control group, 2) exercise group in which mice had 4-week exercise at 35-40% maximal capacity, 3) surgery group, and 4) Exe+Sur group in which mice had 4-week exercise at 35-40% maximal capacity before surgery. The animals were used for learning and memory tests starting 4 days after the surgery (n=12) or their brains were harvested for biochemical assays at 48 h after the surgery (n=10 or 12), for immunofluorescent staining at 48 h and 19 days after the surgery (n=6), and for Golgi staining at 19 days after the surgery (n=8). Blood and feces from mice of the 4 groups were harvested for SCFA measurement at 7 days after the surgery (n=7) and for 16S analyses at 3 and 7 days after the surgery (n=8) or at the end of 4-week exercise protocol or at the corresponding time in the first 2 groups (n=16). Mice for tissue harvesting were different cohorts that were used for learning and memory tests. In second experiment, old mice were randomly assigned to: 1) Trans-Old Control+Sur group, and 2) Trans-Old Exe+Sur group. […] Learning and memory were evaluated from 4 days after surgery (n=10). […] The latency to enter the target box during each trial was recorded by an ANY-Maze video tracking system (SD Instruments).

C57BL/6J mice [4] = assay: Novel object recognition test, old mice; details: old mice with exercise and surgery; intraperitoneal valeric acid once a week vs normal saline
C3 = C3 in the hippocampus by ELISA
Protocol: IL-1β, IL-6, C3 and GDNF in the hippocampus were detected by using ELISA kits. For testing the IL-1β, IL-6 and GDNF, brain tissues were homogenized on ice in the RIPA buffer containing 25 mM Tris-HCl with pH 7.6, 150 mM NaCl, 1% sodium deoxycholate, 0.1% SDS and a protease inhibitor cocktail containing 10 mg/ml aproteinin, 5 mg/ml peptastin, 5 mg/ml leupetin and 1 mM phenylmethane sulfonylfluoride. For C3 testing, brain tissues were homogenized on ice in the PTR buffer (supplied in the kit). The supernatant was collected for ELISA detection after the homogenate was centrifuged at 13,000 g for 20 min at 4° C. and the protein concentration was determined by the BCA protein assay (Bio-Rad, Hemel Hempstead, Herts, UK). IL-1β, IL-6, C3 and GDNF in supernatant of brain were detected according to the manufacturer's instruction for ELISA, and the amount of them in each sample in the brain was normalized by its total protein content and was expressed as pg/mg protein.

[5] = Plasma SCFA profiling by GC-MS; details: mice with exercise and surgery, intraperitoneal valeric acid; blood 7 days after surgery
IL-17 = assay: ELISA of IL-17 in the serum
Protocol: Mice were weighed and anesthetized with isoflurane at 24 h after MCAO. Blood samples were obtained from the right heart after thoracotomy. Blood was centrifuged (13,000 g, 4° C.) after it had been placed at 4° C. for 2 h for the collection of serum. After the collection of blood, mice were perfused with 4° C. saline for brain tissue harvesting. The cerebral cortex (anteroposterior: −1.5 to 2.5 mm, mediolateral: 1.0 to 3.0 mm) was dissected out. All dissection procedures were performed on ice.
IL-10, IL-17, IL-1β and IL-6 in the serum and brain were detected by using ELISA kits (catalog number: M1000B, M1700, MLB00C and D6050, R&D SYSTEM, Inc., Minneapolis, MN, USA) as we described before. The brain tissues were homogenized on ice in the RIPA buffer containing 25 mM Tris-HCl with pH 7.6, 150 mM NaCl, 1% sodium deoxycholate and 0.1% SDS (catalog number: 89901, Thermo Scientific, Rockford, IL, USA) and a protease inhibitor cocktail containing 10 mg/ml aproteinin, 5 mg/ml peptastin, 5 mg/ml leupetin and 1 mM phenylmethane sulfonylfluoride (catalog number: SRE0055, Sigma-Aldrich, St. Louis, MO, USA). The supernatant was collected for ELISA detection after being centrifuged for 20 min (13,000 g, 4° C.) and the protein concentration was determined by the BCA method. Cytokines in the serum and supernatant of brain were detected according to the manufacturer's instruction. The amount of IL-10, IL-17, IL-1β and IL-6 in each sample in the brain was normalized by its protein content.

[6] = 13-week old mice without surgery, intracerebroventricular 4 mg/kg once daily for 4 days (1/50 dose of intraperitoneal injection)
[7] = young adult mice with exercise and surgery, valeric acid 200 mg/kg intraperitoneal once a week vs normal saline

## CCCCC(=O)O [valeric acid]
C57BL/6J mice [1]; [6]
  performance in the Barnes maze: did not affect the performance
C57BL/6J mice [1]; [7]
  time to identify target box in the Barnes maze test: reversed the effects of exercise
C57BL/6J mice [2]; [6]
  performance in novel object recognition test: did not affect the performance
C57BL/6J mice [2]; [7]
  performance in novel object recognition test: abolished
C57BL/6J mice [3]
  performance in Barnes maze: impaired the performance
C57BL/6J mice [4]
  performance in novel object recognition test: impaired the performance
C3; 9-week old control mice, intraperitoneal valeric acid vs normal saline
  C3 in the brain (hippocampus): increased
C3; young adult mice with exercise and surgery, intraperitoneal valeric acid
  exercise-induced reduction of C3 in the hippocampus: this reduction was blocked
[5]
  butyric acid in the blood: attenuated this reduction
  hexanic acid in the blood: attenuated this reduction
  valeric acid in the blood: attenuated this reduction; also recorded: did not increase
IL-17; mice without MCAO, valeric sodium 100 mg/kg intraperitoneal for 7 days
  IL-17 in the blood: increase
IL-17; young mice, 100 mg/kg intraperitoneal 1 h before and 6 h after 120-min MCAO, 24 h after MCAO, vs saline
  IL-17 in the blood: increased
